# Results: patent US8110543B2, “Anti-invasive and anti-angiogenic compositions” (Angstrom Pharmaceuticals, Inc., priority 1997, dated 2012)
# “Also recorded” adds a separate entry of the source.
# Tests used:
# 3LL = test: Matrigel invasion assay, 3LL cells; type: cell-based, mouse; conditions: all the cell lines tested
# Procedure: Several peptides were tested for anti-invasive capacity in a Matrigel® invasion assay system as indicated above (Kleinman et al., supra; Parish et al., supra). Several invasive human tumor lines (PC-3, MDA-MB-231) and non-human tumors (3LL, Mat B-III) were examined. The rat breast cancer line Mat B III and the human prostate cancer line PC-3 were initially used.
# Tumor cells (5×10^5/mL, in a volume of 200 μL) in serum-free RPMI 1640 medium were added to a disposable transwell invasion chamber coated with Matrigel® (Becton Dickinson, Lincoln Park, N.J.). The invasion chambers were placed in 24-well tissue culture plates filled with serum-free RPMI-1640 and the plates were placed in an atmosphere of 5% CO2 in humidified air at 37° C. for 48-72 hours. The chambers were then removed, inverted, and the cells which had invaded (and now appeared on the bottom face of the invasion chamber) were fixed and stained using Diff-Quick® (Scientific Products). Cells were counted in 10 different fields on each filter and an average obtained.
# [1] = tested on: matrix metalloproteinases MMP2 and MMP9; test: EnzCheck gelatinase assay (MMP activity); type: biochemical; conditions: concentrations up to 100 μM; HT1080 supernatant activated with phenylmercuric acetate
# Procedure: HT1080 cells were grown in the presence of dexamethasone for 24 hrs and the supernatant collected and treated with phenylmercuric acetate to activate proMMPs.
# U87 = test: In vitro proliferation, U87 cells; type: cell-based, human
# Procedure: (§1) Å6 was also tested for its ability to inhibit the proliferation of cells other than endothelial cells in vitro.
# Anti-angiogenic therapy is expected to produce both anti-proliferative and pro-apoptotic effects that would “prime” the tumor chemotherapy with these alkylating agents. The proliferative index in the U87 tumors was evaluated using Ki-67 staining followed by digitization of the staining intensity and quantitation.
# CHO = test: In vitro proliferation, CHO cells; type: cell-based
# Procedure: as §1
# HUVEC = HUVEC proliferation assay; type: cell-based, human
# Procedure: HUVEC were plated on gelatin and allowed to adhere for 4 hrs in the presence of 2% FBS. bFGF (1 ng/mL) and the test compounds were added after 4 hours and the % proliferation (where bFGF induced proliferation was 100% and proliferation in the absence of bFGF was 0) was determined using MTS. FIG. 4: the Å6 (50 μg/mL) concentration was kept constant and the concentration of cisplatin (“CDDP”) was varied; FIG. 5: CDDP was kept constant at a sub-optimal dose (1 μg/mL) and Å6 was varied.
# Å6 was tested for its ability to inhibit HUVEC proliferation.
# [2] = tested on: bFGF-induced angiogenesis; test: Chick CAM angiogenesis assay; type: in vivo
# Procedure: Major vessels were quantitated at this time.
# A: Control CAM; B: CAM treated with 1.2 μg/disk of Å6.
# Å6 was tested for its effect on bFGF-induced angiogenesis in a 7 day old chick CAM assay.
# [3] = tested on: MDA-MB-231 human breast cancer cells; test: MDA-MB-231 GFP xenograft model; type: in vivo, mice
# Procedure: Nude mice (n=5 per group) were challenged with 2×10^5 tumor cells co-injected into the mammary fat pad of the mice with Matrigel. […] Control animals received vehicle (PBS) only.
# These cells were first transfected with green fluorescent protein (GFP) to simplify the detection and visualization of metastases.
# The tumor cells (5×10^5) were suspended in 0.1 mL of Matrigel and injected into the mammary fat pad of female BALB/c nu/nu mice. Treatment (75 mg/kg/day) was initiated when the tumors were palpable (10 mm^3, approximately 4 weeks after inoculation of tumor cells) and continued for 5 weeks. Tumor volumes were determined twice per week using caliper measurements. The animals were euthanized at the end of the 5th week of treatment, necropsied and examined for macroscopic metastases. Sections prepared from LNs, lung, liver, spleen and kidney were analyzed for microscopic dissemination of tumor cells using fluorescence microscopy to detect GFP-positive foci.
# Macroscopic metastases were enumerated and their size measured with calipers (Table I below). Microscopic dissemination of tumor cells was quantitated by counting GFP-positive foci in representative sections from lung, liver, kidney and spleen.
# Macrometastases were determined by excising involved LNs and determining the tumor volume by caliper measurement. Microscopic tumor foci were quantitated by sectioning and fixing target organs, then visualizing GFP-labeled cells using fluorescence microscopy (at 200× enlargement). The number of disseminated tumor foci represents the average of 5 fields per section from 3 different sections per organ.
# PC-3 cells = test: PC-3 CAT metastasis model; type: in vivo, mice; conditions: minipump 100 mg/kg/day, 14 or 21 days
# Procedure: The compounds of this invention are also tested for inhibition of late metastasis using an experimental metastasis model (Crowley et al., 1993). Late metastasis involves the steps of attachment and extravasation of tumor cells, local invasion, seeding, proliferation and angiogenesis.
# Human prostatic carcinoma cells (PC-3) transfected with a reporter gene, preferably the green fluorescent protein (GFP) gene, but as an alternative with a gene encoding the enzymes chioramphenicol acetyl-transferase (CAT), luciferase or LacZ. This permits utilization of either of these markers (fluorescence detection of GFP or histochemical colorimetric detection of enzymatic activity) for following the fate of these cells. Cells are injected, preferably iv, and metastases identified after about 14 days, particularly in the lungs but also in regional lymph nodes, femurs and brain. This mimics the organ tropism of naturally occurring metastases of prostate cancer. For example, GFP-expressing PC-3 cells (1×10^6 cells per mouse) are injected iv into the tail veins of nude (nu/nu) mice. Animals are also implanted with mini-pumps (sub-dermally on the back) dispensing either the test compound (at least about 100 mg/kg/day) or vehicle. The animals are euthanized after 14 days and their organs prepared for histological examination. Single metastatic cells and foci are visualized and quantitated by fluorescence microscopy or light microscopic histochemistry or by grinding the tissue and quantitative colorimetric assay of the detectable label.
# In addition to Å6, other related peptide compounds described above are tested for efficacy in vivo in the 3LL model (as provided above) as well as the PC-3 model. PC-3 cells transfected with the gene encoding the enzyme chloramphenicol acetyl-transferase (CAT) are inoculated into mice i.v. at doses of 1×10^6 cells per mouse. These mice are implanted with a minipump, as above, which dispenses 100 mg/kg/day of the peptide or vehicle over a period of 14 or 21 days. At termination of treatment, the animals are euthanized and the tumor marker probe is assayed in regional lymph nodes, femurs, lungs, and brain.
# Mat B-III tumors = test: Rat syngeneic Mat B-III breast cancer model; type: in vivo; conditions: 75 mg/kg/day IP b.i.d.
# [4] = average of 5 fields per section from 3 sections
substance,measurement,setting,value
"Ac-KPSSPPEE-NH2 [Å6, CH3CO-Lys-Pro-Ser-Ser-Pro-Pro-Glu-Glu-NH2]",invasion of 3LL cells through Matrigel,3LL,inhibited
same,inhibition of gelatinase activity,[1],did not inhibit
same,"anti-proliferative effect, U87",U87,No anti-proliferative effects; also recorded: did not inhibit
same,potentiation of the anti-proliferative activity of CDDP against U87 cells,U87,did not potentiate
same,potentiation of the pro-apoptotic activity of CDDP,U87,nor did it potentiate
same,"anti-proliferative effect, CHO",CHO,No anti-proliferative effects
same,potentiation of the anti-proliferative activity of cisplatin (CDDP) against endothelial cells,"HUVEC; CDDP 1 μg/mL, Å6 varied (FIG. 5)",did not potentiate
same,inhibition of HUVEC proliferation,"HUVEC; concentrations as high as 312 μg/mL (340 μM), gelatin, 2% FBS",No inhibition
same,bFGF-induced angiogenesis (major vessel formation) in CAM,"[2]; 7 day old chick CAM, 4 days",inhibits angiogenesis
same,branching morphogenesis in CAM,"[2]; qualitative, stereomicroscopic images",inhibited branching morphogenesis
same,growth of primary challenge tumors,"[3]; IP, 1 mg bid, started when tumor nodules palpable (FIG. 15)",inhibits the growth
same,"Disseminated GFP-positive Tumor Foci, Liver",[3]; [4],3.11 ± 0.14
same,"Disseminated GFP-positive Tumor Foci, Lung",[3]; [4],2.09 ± 0.30
same,"Disseminated GFP-positive Tumor Foci, Spleen",[3]; [4],28.30 ± 2.80
same,"Macroscopic Metastases, Lungs, Number",[3]; end of 5th week of treatment,1 ± 0
same,"Macroscopic Metastases, Lymph Nodes, Number",[3]; end of 5th week of treatment,1.2 ± 0.2
same,"Macroscopic Metastases, Lymph Nodes, Size",[3]; end of 5th week of treatment,7 ± 3 mm^3
same,single foci versus larger colonies in organ sections,[3]; liver and lungs,greater number of single foci
same,Factor VIII-positive hot spots in tumor sections,"[3]; mouse, in vivo",decrease
same,TUNEL-positive foci in tumor sections,"[3]; mouse, in vivo",significant increase
same,"metastasis, PC-3 model",PC-3 cells,markedly inhibited
same,macroscopic metastasis (number of macroscopic foci),Mat B-III tumors,continued to be suppressed; also recorded: inhibited
same,tumor growth (volume of primary tumor),Mat B-III tumors,inhibits
